Measured values: patent US11712425B2, “Immunoregulatory role of 3-OH-kynurenamine and uses thereof” (ALBERT EINSTEIN COLLEGE OF MEDICINE, priority 2018, dated 2023)
“Also recorded” adds a separate entry of the source. Each block holds one molecule with its values, some of them ahead of it.

What was measured:
[1] = molecular target: T1, aromatic L-amino acid decarboxylase (AADC) (Homo sapiens, UniProt P20711); assay: Decarboxylation by recombinant AADC; format: biochemical; conditions: enzyme plus PLP, monitored over 40 min, CO2 production
T1 construct: full-length recombinant AADC was incubaled with 3-OH-kynurenine
T1 sequence (P20711 1-480): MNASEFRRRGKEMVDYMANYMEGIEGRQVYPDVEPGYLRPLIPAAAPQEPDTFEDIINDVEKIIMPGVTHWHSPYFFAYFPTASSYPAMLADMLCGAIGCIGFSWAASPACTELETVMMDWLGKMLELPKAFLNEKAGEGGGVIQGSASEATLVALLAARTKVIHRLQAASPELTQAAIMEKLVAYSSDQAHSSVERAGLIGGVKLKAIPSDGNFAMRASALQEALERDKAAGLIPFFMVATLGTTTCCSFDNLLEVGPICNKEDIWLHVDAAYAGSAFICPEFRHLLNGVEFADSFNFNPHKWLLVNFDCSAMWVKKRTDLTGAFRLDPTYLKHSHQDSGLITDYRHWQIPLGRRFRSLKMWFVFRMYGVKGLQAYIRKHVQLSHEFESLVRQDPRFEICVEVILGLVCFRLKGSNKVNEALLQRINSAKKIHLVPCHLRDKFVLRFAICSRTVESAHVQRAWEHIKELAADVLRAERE
Protocol: FIG. 2. […] Tryptophan, a natural substrate for aromatic L-amino acid decarboxylase (AADC) was incubated with the enzyme and the PLP catalyst. In a separate reaction 3-OH-kynurenine was incubated under the same experimental conditions. Reactions were monitored over a 40 min. period. […] One of a triplicate experiment is shown.
As a next step, to determine whether AADC is the natural enzyme processing 3-OH-L-kynurenine into 3-OH-kynurenamine, full-length recombinant AADC was incubaled with 3-OH-kynurenine and its conversion to 3-OH-kynurenamine was followed by detecting CO2 production due to decarboxylation.

AhR = molecular target: T2, AhR (Mus musculus, UniProt P30561); assay: AhR luciferase reporter (Cyp1a1 promoter) in mouse embryonic fibroblasts; format: cell-based; conditions: for AhR activation (luciferase reporter): MEFs constitutively expressing AhR, stimulated 24 hours, different concentrations
T2 construct: mouse embryonic fibroblasts (MEFs) constitutively expressing AhR; endogenous in cells; host or cells: mouse embryonic fibroblasts (MEFs)
T2 sequence (P30561 10-848): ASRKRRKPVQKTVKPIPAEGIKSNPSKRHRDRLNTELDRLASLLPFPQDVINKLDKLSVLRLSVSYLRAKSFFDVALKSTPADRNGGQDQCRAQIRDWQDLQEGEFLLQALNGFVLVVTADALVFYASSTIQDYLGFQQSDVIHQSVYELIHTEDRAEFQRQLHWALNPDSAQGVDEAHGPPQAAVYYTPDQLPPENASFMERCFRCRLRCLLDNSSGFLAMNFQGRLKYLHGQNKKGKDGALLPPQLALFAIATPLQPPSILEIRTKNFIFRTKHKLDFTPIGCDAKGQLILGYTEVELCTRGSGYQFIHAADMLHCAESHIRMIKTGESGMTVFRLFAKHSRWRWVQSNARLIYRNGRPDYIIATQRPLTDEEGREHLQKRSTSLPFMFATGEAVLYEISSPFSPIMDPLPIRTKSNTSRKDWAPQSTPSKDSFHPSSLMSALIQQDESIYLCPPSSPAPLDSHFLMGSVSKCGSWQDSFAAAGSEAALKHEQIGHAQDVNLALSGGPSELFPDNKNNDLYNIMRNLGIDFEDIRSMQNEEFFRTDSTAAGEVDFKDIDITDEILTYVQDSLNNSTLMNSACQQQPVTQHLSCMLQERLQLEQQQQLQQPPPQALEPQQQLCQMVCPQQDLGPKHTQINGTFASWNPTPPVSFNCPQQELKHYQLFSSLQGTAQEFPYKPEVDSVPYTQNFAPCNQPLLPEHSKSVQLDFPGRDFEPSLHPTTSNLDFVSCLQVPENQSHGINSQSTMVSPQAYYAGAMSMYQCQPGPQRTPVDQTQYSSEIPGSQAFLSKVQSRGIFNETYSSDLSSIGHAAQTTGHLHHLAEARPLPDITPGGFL
Protocol: Cells were either untreated or stimulated for 24 hours with different concentrations of 3-OH-kynurenamine and, as positive control, L-kynurenine, the known AhR agonist.

cDCs = assay: Gene expression by RT-PCR in conditioned cDCs; format: cell-based, mouse; conditions: cDCs from spleens of C57BL/6 mice, 30 μM, after 2-6 hr
Protocol: FIG. 3A-3D. 3-OH-kynurenamine confers immunosuppressive properties on DCs. […] Analysis (B) was calculated from 3 independent experiments. C and D) mouse cDCs (C) and human PBMCs (D). After incubation with 30 (C) or 2 (D) μM kynurenines, gene expression was evaluated by RT-PCR at 6− (C) or 6 and 18 (D) h. Data were normalized to GAPDH expression and presented relative to results in untreated cells (dotted line, one-fold). Mean fold induction+SD of triplicate experiments.
(§1) Biological Role of 3-OH-Kynurenamine. Trp metabolites are known to exert several functions in immune cells. In dendritic cells, either cDCs or pDCs, incubation with L-kynurenine and/or 3-OH-anthranilic acid induces IDO1 expression and production of immunosuppressive TGF-β production. In turn, cDCs and pDCs conditioned with these Trp catabolites increase differentiation of T lymphocytes into Treg cells in vitro and, when administered in vivo, induce antigen-specific T cell tolerance.

[2] = tested on: antigen-specific delayed-type hypersensitivity; assay: In vivo suppressive activity of conditioned DCs (delayed-type hypersensitivity, footpad skin test); set-up: species or system mice; conditions: cDCs conditioned 24 hr with 30 μM, pulsed with IGRP peptide; skin reactivity at 15 days
Protocol: FIG. 4A-4B. […] B) In vivo suppressive activity of CD8^− DCs, pulsed with the IGRP peptide (an autoantigen in autoimmune diabetes), in combination with a minority fraction (5%) of CD8^− DCs either untreated (Unt) or pretreated with 30 μM 3-OH-kynurenamine for 24 h and pulsed with the same peptide prior in vivo administration; analysis of skin reactivity of recipient mice to the eliciting peptide at 15 days is presented as change in footpad weight. ***P<0.001 (mean weight of experimental versus control footpads, i.e., injected with vehicle alone). Results are presented as fold induction±SD of triplicate experiments.
as §1

dendritic cells = assay: Quantitative proteomics of dendritic cells treated with 3-OH-kynurenamine; format: cell-based
NFκB pathway = assay: Western blot of NFκB pathway in DCs; format: cell-based; conditions: 3 independent experiments
Psoriasis model = assay: Imiquimod-induced psoriasis model; format: in vivo, mice; conditions: Imiquimod 7 days, 50 mg/kg ip for 7 days
Protocol: FIG. 5A-5B. […] Some of the mice were also treated with 3-OH-Kynurenamine (50 mg/kg ip; for 7 days). Controls are mice that were shaved but left untreated; Imiquimod and Imiquimod plus 3-OH-Kynurenamine refers to the specific treatments. After 7 days mice were sacrificed and skin processed for H&E staining.
as §1

[3] = tested on: nephrotoxic nephritis (NTN); assay: Nephrotoxic nephritis (NTN) model; format: in vivo, 129/Sv mice; conditions: daily intraperitoneal 50 mg/kg from day +4 until day +12
Protocol: FIG. 6A-6F. […] Ten week old female 129/Sv mice were immunized intraperitoneally with rabbit IgG in complete Freund's adjuvant (day 0). Five days later, mice received an intravenous injection of 90 ul of pre-formed rabbit anti-mouse glomerular basement membrane antibodies (N-Ab) or PBS. Starting at day +4, mice started receiving daily intraperitoneal injections of 50 mg/kg of 3-OH-kynurenamine (n=6) or vehicle control (n=8) until sacrifice on day +12. A) Proteinuria levels determined at sacrifice by uristix. B) % of mice in each group at sacrifice that reached the predetermined cut-off value for severe proteinuria of >300 mg/dl. C) Blood Urea Nitrogen levels determined at sacrifice. D) % of mice in each group that reach pre-specified humane end points for sacrifice (>300 mg/dl on two consecutive days, a single value of >2000 mg/dl, or poor general well being. E and F) All groups of mice developed similar titers of E) antirabbit injected Ab and F) anti-GBM Ab. […] (*p<0.05, **p<0.01).
Biological Role of 3-OH-Kynurenamine. Trp metabolites are known to exert several functions in immune cells. In dendritic cells, either cDCs or pDCs, incubation with L-kynurenine and/or 3-OH-anthranilic acid induces IDO1 expression and production of immunosuppressive TGF-β production. […]

Compound: Nc1c(O)cccc1C(=O)C[C@H](N)C(=O)O [3-OH-kynurenine]
conversion (decarboxylation) by AADC [1]: converted to 3-OH-kynurenamine; also recorded: AADC was capable of inducing 3-OH-kynurenine decarboxylation

Compound: Nc1ccccc1C(=O)C[C@H](N)C(=O)O [L-kynurenine, reference compound]
AhR activation (luciferase reporter) (AhR): activated AhR in a concentration-dependent manner

Compound: NCCC(=O)c1cccc(O)c1N [3-OH-kynurenamine]
AhR activation (luciferase reporter) (AhR): induced a concentration-dependent AhR activation
AhR activation relative to L-kynurenine (AhR; MEFs, 24 hours): around 6.5 times
Tgfbl transcripts (cDCs): significantly upregulates
idol transcripts (cDCs): significantly upregulates
antigen-specific delayed-type hypersensitivity induced by immunostimulatory cDCs [2]: suppressed antigen-specific delayed-type hypersensitivity
NF-κB inhibitor IKB level (quantitative proteomic) (dendritic cells; cDC, 20 μM, 24 hr, IFNγ/3-OH-kynurenamine vs IFNγ control): up-regulation of the NF-κB inhibitor IKB
MS1 quantification of immunological relevant proteins (dendritic cells; dendritic cells, media supplemented with 3-OH-Kynurenamine vs media alone): down-regulated
NFκB pathway (Western blot, densitometry) (NFκB pathway): downregulation of the NFκB pathway
skin inflammation / clinical and histological manifestation of psoriasis (Psoriasis model; 50 mg/kg): decreases clinical and histological manifestation of psoriasis; also recorded: decrease skin inflammation
epidermis hyperplasia (Psoriasis model; H&E staining): statistically significant lower levels
ortho and parakeratosis (Psoriasis model; H&E staining): statistically significant lower levels
rete ridges formation (Psoriasis model; H&E staining): statistically significant lower levels
nephrotoxic nephritis / kidney damage (proteinuria, overall animal survival) [3]: attenuates nephrotoxic nephritis (NTN)
nephrotoxic nephritis / kidney damage (proteinuria, overall animal survival) ([3]; listed as 3-OH-Kynurenamine): decrease

conversion (decarboxylation) by AADC [1]: converted to Tryptamine
Compound: N[C@@H](Cc1c[nH]c2ccccc12)C(=O)O [Trp, Tryptophan]
